Reference: US12691101B2, “Compound and method for preventing or treating of respiratory diseases comprising the same as an active ingredient” (YONSEI UNIVERSITY, UNIVERSITY - INDUSTRY FOUNDATION (UIF), priority 2019, dated 2026)

Legend:
MUC5AC mRNA = test: Real-time PCR of MUC5AC mRNA in IL-4-treated HNE cells; format: cell-based, human; conditions: IL-4-treated HNE cells (F10: 120 hours after treatment)
Experimental: (A) The MUC5AC mRNA expression level was determined at the indicated time after treatment of F56 ([…]) in IL-4 (10 ng/ml)-treated HNE cells (mean±S.E., n=4). (B) Periodic acid-Schiff (PAS) staining showing goblet cell hyperplasia of IL-4 and IL-13 (10 ng/ml)-treated HNE cells in presence or absence of F56 ([…]) at Day 7. (C) Measurement of the total volume of ASL and fluid meniscus in HNE cells expressing wild-type (wt) or mutant (mt) PDS. The HNE cells were treated with IL-4 (10 ng/ml, 48 hours) in presence or absence of […]. (D) Representative image of a transwell insert having normal HNE cells. Arrows indicate the fluid meniscus of HNE cells treated with IL-4 (10 ng/ml, 48 hours) in presence or absence of […]. (E) Representative protein expression result of pendrin in IL-4 and IL-13-treated HNE cells. […]
The MUC5AC mRNA expression level was determined in 120 hours after F10 treatment by real-time quantitative PCR in IL-4-treated HNE cells.
The total messenger RNA (mRNA) was extracted using TRIzol reagent (Invitrogen, Carlsbad, CA, USA), and was reverse-transcribed using a random hexamer primer, an oligo(dT) primer and SuperScript® III reverse transcriptase (Invitrogen). Quantitative real-time PCR was performed using StepOnePlus Real-Time PCR system (Applied Biosystems, Foster City, CA, USA) and Thunderbird SYBR qPCR mix (Tokyobo, Osaka, Japan). […]

[1] = molecular target: T1, human wild-type (WT)-pendrin (Homo sapiens, UniProt O43511); test: Pendrin-mediated Cl^−/OH^− exchange activity in CHO-K1 cells; format: cell-based
T1 construct: expressed in transfected cells
T1 sequence (O43511 1-780): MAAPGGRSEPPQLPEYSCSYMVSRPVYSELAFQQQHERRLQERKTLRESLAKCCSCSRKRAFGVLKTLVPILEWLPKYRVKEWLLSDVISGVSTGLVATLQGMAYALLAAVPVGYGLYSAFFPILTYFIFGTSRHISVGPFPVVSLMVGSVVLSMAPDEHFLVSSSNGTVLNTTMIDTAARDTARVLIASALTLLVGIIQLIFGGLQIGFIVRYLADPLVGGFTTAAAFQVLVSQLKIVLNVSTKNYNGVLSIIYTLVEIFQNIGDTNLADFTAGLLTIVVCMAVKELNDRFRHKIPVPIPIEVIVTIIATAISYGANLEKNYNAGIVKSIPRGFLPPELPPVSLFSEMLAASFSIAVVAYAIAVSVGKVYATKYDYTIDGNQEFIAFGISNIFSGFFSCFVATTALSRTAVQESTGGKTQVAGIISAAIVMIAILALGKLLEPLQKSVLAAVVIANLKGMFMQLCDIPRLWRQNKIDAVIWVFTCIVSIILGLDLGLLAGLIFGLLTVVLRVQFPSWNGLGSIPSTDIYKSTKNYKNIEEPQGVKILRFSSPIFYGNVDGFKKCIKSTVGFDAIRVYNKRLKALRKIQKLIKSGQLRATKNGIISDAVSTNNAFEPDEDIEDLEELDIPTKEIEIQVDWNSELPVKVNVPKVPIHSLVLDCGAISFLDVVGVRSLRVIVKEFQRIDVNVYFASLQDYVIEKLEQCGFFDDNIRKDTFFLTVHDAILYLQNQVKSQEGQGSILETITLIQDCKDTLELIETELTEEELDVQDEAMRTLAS
Experimental: For measurement of Cl^−/OH^− exchange activity, intracellular pH (pHi) was measured in WT-pendrin expressing CHO-K1 and HNE cells using pH sensor SNARF5-AM (Molecular Probes). The cells were treated with 5 μM SNARF5-AM for 30 minutes, and then were equipped in a perfusion chamber on the stage of a reverse fluorescence microscope (Nikon, Tokyo, Japan) equipped with a cooled charge-coupled device camera (Zyla sCMOS), image acquisition and analysis software (Meta Imaging Series 7.7). To measure the Cl^−/OH^− exchange activity, HEPES buffer solution was changed to CV-free HEPES buffer solution for generation of an Cl^− gradient driving Cl^− outflow and OH^− inflow of cytosol by pendrin.

PDS mRNA = test: Real-time PCR of PDS mRNA in IL-4-treated HNE cells; format: cell-based, human; conditions: IL-4-treated HNE cells (F10: 120 hours after treatment)
Experimental: The total messenger RNA (mRNA) was extracted using TRIzol reagent (Invitrogen, Carlsbad, CA, USA), and was reverse-transcribed using a random hexamer primer, an oligo(dT) primer and SuperScript® III reverse transcriptase (Invitrogen). Quantitative real-time PCR was performed using StepOnePlus Real-Time PCR system (Applied Biosystems, Foster City, CA, USA) and Thunderbird SYBR qPCR mix (Tokyobo, Osaka, Japan). Thermal cycling conditions included the initial stage at 95° C. for 5 minutes, and subsequent 40 cycles at 95° C. for 10 seconds, at 55° C. for 20 seconds and at 72° C. for […].

CHO-K1 cells = test: Cell viability, MTS colorimetric analysis, CHO-K1; format: cell-based, Chinese hamster; conditions: 24 hours, up to 30 μM
Experimental: (A) Pendrin-mediated Cl^−/I^− exchange activity (mean±S.E., n=5). The indicated concentration of F56 was pretreated for 10 minutes. (B, C) Representative tracing of intracellular pH. The application of Cl^− free solution induced intracellular alkalization through pendrin-mediated Cl^−/HCO3^− and Cl^−/OH^− exchange activity. The indicated concentration of F56 was pretreated for 10 minutes. (D-F) The pendrin-mediated Cl^−/I^− exchange activity was measured in CHO-K1 cells expressing human pendrin. The indicated concentration of F56, PDSinh-A01 and PDSinh-C01 was pretreated for 10 minutes. (G) Summary of dose-response of F56, PDSinh-A01 and PDSinh-C01 (mean±S.E., n=3). (H, I) Effect of F56, PDSinh-A01 and PDSinh-C01 on the cell viability in NIH3T3 (H) and CHO-K1 (I) cells. The cells were treated with F56, PDSinh-A01 and PDSinh-C01 for 24 hours. The cell viability was measured by MTS colorimetric analysis (mean±S.E., n=3). NTC, non-transfected cells.
The cells were treated with F10 for 24 hours. The cell viability was determined by MTS colorimetric analysis (mean±S.E., n=3).

| Structure (SMILES) | mRNA expression of IL-4-induced MUC5AC (MUC5AC mRNA) | inhibition of pendrin Cl^−/OH^− exchange activity [1] | PDS mRNA expression level (PDS mRNA) | cytotoxicity in CHO-K1 cells (CHO-K1 cells) |
| --- | --- | --- | --- | --- |
| CC(C)(C)c1ccc(C2=NC(=Cc3ccc[nH]3)C(=O)O2)cc1 [F10, 4-((1H-pyrrol-2-yl)methylene)-2-(4-(tert-butyl)phenyl)oxazol-5 (4H)-one] | reduced the mRNA expression of MUC5AC in a concentration-dependent manner | strongly inhibit | did not show any effect | did not show any cytotoxicity up to 30 μM |
| CC(C)(C)c1ccc(C2=NC(=Cc3cccs3)C(=O)O2)cc1 [F56, 2-(4-(tert-butyl)phenyl)-4-(thiophen-2-ylmethylene)oxazol-5(4H)-one] | significantly reduced | strongly inhibited | without changes of the mRNA expression level | did not show cytotoxicity up to 30 μM |
